These results are taken from US8501772B2, “3,8-diaminotetrahydroquinoline derivative” (Zeria Pharmaceutical Co., Ltd., priority 2008, dated 2013).

Counter-ions that a name gives are not always drawn.

One data set concerns the target T1, human GHS-R1a (Homo sapiens, UniProt Q92847).
T1 construct: expressed in transfected cells
As to the kind of experiment: Agonistic activity by use of a cell line stably expressing human GHS-R1a (intracellular calcium increase). The class given is cell-based. To be noted: hGHS-R1a/CHO cells, percent increase in intracellular calcium vs 100 nM ghrelin; read-out: GHS-R agonistic activity (EC50: nM). As for the experimental part: CHO-K1 cells were transfected with human GHS-R1a genes, to thereby provide cells stably expressing GHS-R1a (hGHS-R1a/CHO), and the agonistic activity of each compound was evaluated by use of the cells based on percent increase in intracellular calcium as an index.
The hGHS-R1a/CHO cells were inoculated at 6×10^4 cells/well in a 96-well plate (Clear bottom/Black plate, product of Corning), and cultured in Ham's F12 medium containing 10% fetal bovine serum at 37° C. and 5% CO2 for 18 hours. After culture, the medium was removed, and then the hGHS-R1a/CHO cells were cultured for two hours in a Hanks' balanced salt solution/HEPES (HBSS/HEPES, 100 μL) containing a calcium fluorescent indicator (4 μM Fluo-3AM, product of Dojin), 2 mM Probenecid, 0.1% Pluronic F-127, and 0.1% BSA, whereby the indicator was incorporated into the cells. After washing the cells, HBSS/HEPES (175 μL/well) containing 2 mM Probenecid and 0.1% BSA was added to the plate, and the fluorescence before and after addition of each test compound was determined by means of FLEXstation (Ex: 485 nm, Em: 525 nm, product of Molecular Devices). Each test compound was multi-fold diluted with dimethyl sulfoxide and then diluted with HBSS/HEPES containing 2 mM Probenecid, 0.04% Pluronic F-127, and 0.1% BSA, to thereby attain a final concentration of interest. The thus-diluted solution (25 μL/well) was added to the wells.
Agonistic activity(%)=(A−B)/(C−D)×100
A: Fluorescence intensity after addition of test compound
B: Fluorescence intensity before addition of test compound
C: Fluorescence intensity after addition of 100 nM ghrelin
D: Fluorescence intensity before addition of ghrelin
A general note: Calcium assays in cells follow changes in intracellular calcium, usually with a dye or a luminescent sensor.

A short description of data set [1]: Bioavailability in male rats. In kind it is in vivo. The conditions noted are these: rat, plasma, oral, intravenous 1 or 3 mg/kg, peroral 30 mg/kg, n=3, read-out: bioavailability (BA). As for the experimental part: (§1) A test compound was administered to male rats intravenously (1 or 3 mg/kg) or perorally (30 mg/kg), and to male beagles intravenously or perorally (3 mg/kg). After administration, blood was collected at designated times, to thereby obtain plasma samples.

Data set [2] in a line: Bioavailability in male beagles. In kind it is in vivo. The conditions noted are these: beagle, dog, plasma, po; male beagles (dogs), intravenous or peroral 3 mg/kg, n=3; read-out: bioavailability (BA). As for the experimental part: as §1
The nature of data set [3]: Distribution in the brain (brain-to-plasma partition coefficient). In kind it is in vivo. To be noted: rat, male rats, intravenous bolus then constant-rate infusion, steady state. As for the experimental part:
Under anesthesia, a test drug was intravenously administered to male rats (1 to 4 mg/kg) and then intravenously administered (14 to 95 μg/kg) at a constant rate. At two hours after starting the infusion, when a steady state was thought to have been reached, the whole blood was collected from each rat and the brain was excised. The concentrations of test drug in brain samples and plasma samples were determined using LC-MS/MS, and the brain-to-plasma partition coefficient (Kp value) was calculated (n=6 or 9).

For the next data set, the target named is T2, CYP3A4 (Homo sapiens, UniProt P08684).
T2 construct: determined by use of human liver microsomes based on the midazolam hydroxylation activity as an index; from tissue; host or cells: human liver microsomes
Nature of the data set: CYP3A4 inhibitory activity, human liver microsomes, midazolam hydroxylation. In kind it is in vitro ADME. As for the experimental part:
The in vitro CYP3A4 inhibitory activity was determined by use of human liver microsomes based on the midazolam hydroxylation activity as an index, and the Ki values were calculated.
(Microsomes from liver hold many membrane-bound enzymes, among them those of drug oxidation.)

The next data set has as its system beagles. As to the kind of experiment: Toxicity test: single oral administration to dogs. The class given is in vivo. The conditions noted are these: male beagles, single peroral. As for the experimental part: An encapsulated test drug was forcedly administered to beagles, and acute toxicity of the drug was studied.
Compound of Example 34a was singly perorally administered to male beagles at a dose of 30 and 100 mg/kg. […] General conditions of the beagles were observed, and hematologic and blood biochemical tests were carried out.

The subject of data set [4] is model rats with IL-1β-induced cachexia. As to the kind of experiment: Improvement of cachexia induced by IL-1β. In kind it is in vivo. To be noted: SD rats, rmIL-1β into cerebral ventricle, peroral 100 mg/kg. An excerpt: By use of model rats with IL-1β-induced cachexia, the effects of a test compound on ameliorating reduction in body weight and in food intake were examined.
SD rats (male, 8-week old, 270 to 340 g, Japan Charles River) were conditioned in a cage (one rat/cage), and were allowed water and a diet (CRF-1, product of Oriental Yeast Co., Ltd.) ad libitum. The illumination conditions employed in the house were as follows: 10:30 to 22:30 (dark) and 22:30 to 10:30 (light).
An osmotic pump (Mini-Osmotic Pump Model 2001, product of ALZET, filled with saline) was connected to a canula, and the canula was inserted into the cerebral ventricle of a rat. The rats obtained were conditioned for three days, and the osmotic pump was changed to another osmotic pump filled with recombinant mouse IL-1β (rmIL-1β). By means of the pump, rmIL-1β was continuously injected into the cerebral ventricle ([…]), to thereby induce cachexia. Two days after starting of injection of IL-1β, a test compound dissolved in 0.5% methylcellulose solution was perorally administered to each rat just before switching-off the light. During the period of administration of the test compound, the body weight and the food intake were measured every 24 hours.

T1 sequence (Q92847 whole entry): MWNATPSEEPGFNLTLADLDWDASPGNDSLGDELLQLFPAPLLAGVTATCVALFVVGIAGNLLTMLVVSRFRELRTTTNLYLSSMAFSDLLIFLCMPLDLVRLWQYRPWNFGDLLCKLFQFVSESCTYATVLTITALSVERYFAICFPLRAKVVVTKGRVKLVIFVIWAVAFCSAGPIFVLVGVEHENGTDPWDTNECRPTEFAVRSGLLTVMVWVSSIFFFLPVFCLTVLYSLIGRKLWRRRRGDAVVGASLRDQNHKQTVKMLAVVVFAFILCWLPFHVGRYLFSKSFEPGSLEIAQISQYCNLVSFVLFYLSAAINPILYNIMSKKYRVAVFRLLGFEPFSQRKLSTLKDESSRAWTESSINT
T2 sequence (P08684 whole entry): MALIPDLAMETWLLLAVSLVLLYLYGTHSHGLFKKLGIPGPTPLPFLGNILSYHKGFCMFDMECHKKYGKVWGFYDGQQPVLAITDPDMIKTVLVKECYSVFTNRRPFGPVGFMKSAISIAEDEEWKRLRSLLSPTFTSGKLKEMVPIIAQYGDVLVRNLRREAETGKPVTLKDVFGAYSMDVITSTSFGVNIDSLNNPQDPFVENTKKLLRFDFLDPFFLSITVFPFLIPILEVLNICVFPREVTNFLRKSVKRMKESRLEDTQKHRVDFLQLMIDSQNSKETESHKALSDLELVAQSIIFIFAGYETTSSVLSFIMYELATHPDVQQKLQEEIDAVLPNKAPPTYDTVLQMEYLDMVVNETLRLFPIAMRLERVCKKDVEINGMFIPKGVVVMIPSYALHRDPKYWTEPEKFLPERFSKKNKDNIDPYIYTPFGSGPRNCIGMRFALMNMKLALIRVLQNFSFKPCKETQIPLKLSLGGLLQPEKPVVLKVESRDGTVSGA

Take `CC(C)C[C@@H](NC(=O)C(C)(C)N)C(=O)NC1Cc2cccc(N3CCCC3=O)c2N(Cc2ccsc2)C1=O` (stereo partly drawn) [Example 34a, (2R)-2-(2-amino-2-methylpropanamido)-4-methyl-N-[2-oxo-8-(2-oxopyrrolidin-1-yl)-1-(thiophen-3-ylmethyl)-1,2,3,4-tetrahydroquinolin-3-yl]pentanamide hydrochloride]: the concentration for a half-maximal effect (EC50) – broadly, the concentration needed to bring the measured effect to its halfway point – on human GHS-R1a was determined as 0.38 nM. The bioavailability – broadly, the share of a dose that reaches the circulation, judged against a reference dose that is usually intravenous – in data set [1] was 35%. In addition, in data set [2], the bioavailability was determined as 84%. For the same compound, the Kp (in general, the ratio of the level in a tissue or fluid to that in plasma or blood) at 2 h in data set [3] is 0.06. Further, the Ki (usually a measure of affinity in units of concentration, obtained from inhibition or displacement) at CYP3A4 turned out to be 86000 nM. The “acute toxicity, general conditions” value with beagles (maximum dose 100 mg/kg) is given as “only slight vomiting”. Besides, in data set [4], the “reduction in body weight caused by IL-1β” value was “significantly suppressed” and the “reduction in food intake caused by IL-1β” value was “significantly suppressed”.

As for `CN(C)N(C)C(=O)[C@@]1(Cc2ccccc2)CCCN(C(=O)[C@@H](Cc2c[nH]c3ccccc23)NC(=O)C(C)(C)N)C1` [Anamorelin hydrochloride, anamorelin hydrochloride, reference compound], the EC50 at human GHS-R1a came out at 0.15 nM. Besides, the figures for the bioavailability in data set [1] and in data set [2] were 21% and 19%, respectively. Besides, the Kp at 2 h in data set [3] worked out at 0.42. Further, the “acute toxicity, general conditions” value in the data set with beagles (30 mg/kg) was “serious anomalous disorders in general conditions such as vomiting, infrequent pulse, tremble, and disorders in walking”.

Regarding `CC(C)n1cc(C[C@@H](NC(=O)C(C)(C)N)C(=O)NC2Cc3cccc(N4CCCC4=O)c3N(Cc3ccsc3)C2=O)c2ccccc21` (stereo partly drawn) [Example 34f, 2-amino-N-[(2R)-3-(1-isopropyl-1H-indol-3-yl)-1-oxo-1-[2-oxo-8-(2-oxopyrrolidin-1-yl)-1-(thiophen-3-ylmethyl)-1,2,3,4-tetrahydroquinolin-3-ylamino]propan-2-yl]-2-methylpropanamide hydrochloride], the concentration giving a half-maximal response (EC50) at human GHS-R1a was found to be 1.13 nM.

Turning to `CC(C)(N)C(=O)N[C@H](Cc1cn(CCF)c2ccccc12)C(=O)NC1Cc2cccc(N3CCCC3=O)c2N(Cc2ccsc2)C1=O` (stereo partly drawn) [Example 34d, 2-amino-N-[(2R)-3-[1-(2-fluoroethyl)-1H-indol-3-yl]-1-oxo-1-[2-oxo-8-(2-oxopyrrolidin-1-yl)-1-(thiophen-3-ylmethyl)-1,2,3,4-tetrahydroquinolin-3-ylamino]propan-2-yl]-2-methylpropanamide hydrochloride], the EC50 on human GHS-R1a came to 0.22 nM.

As for `CC(C)(N)C(=O)N[C@H](Cc1c[nH]c2ccccc12)C(=O)NC1Cc2cccc(N3CCCC3=O)c2N(Cc2ccccc2)C1=O` (stereo partly drawn) [Example 38, 2-Amino-N-[(2R)-1-[1-benzyl-2-oxo-8-(2-oxopyrrolidin-1-yl)-1,2,3,4-tetrahydroquinolin-3-ylamino]-3-(1H-indol-3-yl)-1-oxopropan-2-yl]-2-methylpropanamide hydrochloride], the EC50 at human GHS-R1a came to 0.1 nM.

As for `CC(=O)Nc1cccc2c1N(Cc1ccccn1)C(=O)C(NC(=O)[C@@H](CC(C)C)NC(=O)C(C)(C)N)C2` (stereo partly drawn) [Example 40, (2R)—N-(8-Acetamido-2-oxo-1-(pyridin-2-ylmethyl)-1,2,3,4-tetrahydroquinolin-3-yl)-2-(2-amino-2-methylpropanamido)-4-methylpentanamide], the EC50 at human GHS-R1a amounted to 80 nM.

As for `CCn1cc(C[C@@H](NC(=O)C(C)(C)N)C(=O)NC2Cc3cccc(N4CCCC4=O)c3N(Cc3ccsc3)C2=O)c2ccccc21` (stereo partly drawn) [Example 34c, 2-amino-N-[(2R)-3-(1-ethyl-1H-indol-3-yl)-1-oxo-1-[2-oxo-8-(2-oxopyrrolidin-1-yl)-1-(thiophen-3-ylmethyl)-1,2,3,4-tetrahydroquinolin-3-ylamino]propan-2-yl]-2-methylpropanamide hydrochloride], the 50% effective concentration (EC50) at human GHS-R1a amounted to 0.02 nM.

As for `CC(C)C[C@@H](NC(=O)[C@H](C)N)C(=O)NC1Cc2cccc(N3CCCC3=O)c2N(Cc2ccsc2)C1=O` (stereo partly drawn) [Example 25h, (2R)-2-((S)-2-aminopropanamido)-4-methyl-N-[2-oxo-8-(2-oxopyrrolidin-1-yl)-1-(thiophen-3-ylmethyl)-1,2,3,4-tetrahydroquinolin-3-yl]pentanamide], the 50% effective concentration (EC50) on human GHS-R1a stood at 6.13 nM.

As for `CC(C)(N)C(=O)N[C@H](Cc1c[nH]c2ccccc12)C(=O)NC1Cc2cccc(N3CCCC3=O)c2N(Cc2ccsc2)C1=O` (stereo partly drawn) [Example 25l, N-[(2R)-3-(1H-indol-3-yl)-1-oxo-1-[2-oxo-8-(2-oxopyrrolidin-1-yl)-1-(thiophen-3-ylmethyl)-1,2,3,4-tetrahydroquinolin-3-ylamino]propan-2-yl]-2-amino-2-methylpropanamide], the EC50 at human GHS-R1a is less than 0.1 nM.
